Paper PMC10255569, “Discovery of Peptidic Ligands against the SARS-CoV-2 Spike Protein and Their Use in the Development of a Highly Sensitive Personal Use Colorimetric COVID-19 Biosensor” (ACS Sensors, 2023)
Non-standard residues stand in square brackets, D forms with d. Residues, ends and D or L forms follow the SMILES beside them. *: point of attachment. Biotin = O=C1N[C@H]2[C@H](CS[C@H]2CCCCC(=O)*)N1; Phe(3,5-F2) = N[C@@H](Cc1cc(F)cc(F)c1)C(=O)O; hCit = NC(=O)NCCCC[C@H](N)C(=O)O; Aad = N[C@@H](CCCC(=O)O)C(=O)O; dPhg = N[C@@H](C(=O)O)c1ccccc1; Nva = CCC[C@H](N)C(=O)O; AEEA = NCCOCCOCC(=O)O; Ac3c = NC1(C(=O)O)CC1

System: SARS-CoV-2 spike protein active trimer
Format: binding

SMILES | binding to the S-protein active trimer (in words) | Kd [nM] | binding affinity, times higher than CoV6-2 [times] | binding affinity, times stronger than the 13-mer reference peptide [times]
COc1ccc(C[C@H](NC(=O)[C@H](N)Cc2c[nH]cn2)C(=O)N[C@@H](CCCNC(=N)N)C(=O)N[C@@H](C(=O)N[C@H](CCC(=O)O)C(=O)N[C@H](Cc2c[nH]cn2)C(=O)N[C@H](CCSC)C(=O)N[C@@H](CC(C)C)C(=O)NCCOCCOCC(=O)NCCOCCOCC(=O)N[C@@H](CCCCNC(=O)CCCC[C@@H]2SC[C@@H]3NC(=O)N[C@@H]32)C(N)=O)c2ccccc2)cc1 [L9-1] (H-[dH]Y(Me)R[dPhg][dE][dH][dM]L[AEEA][AEEA]K(Biotin)-NH2) | bind reasonably well |  |  | 
CCC[C@H](NC(=O)[C@H](CCCCNC(N)=O)NC(=O)[C@H](CCCNC(=N)N)NC(=O)[C@H](Cc1ccc(OC)cc1)NC(=O)[C@H](N)Cc1c[nH]cn1)C(=O)N[C@@H](CCCNC(=N)N)C(=O)N[C@@H](Cc1cc(F)cc(F)c1)C(=O)N[C@@H](Cc1ccccc1)C(=O)N[C@@H](CCCC(=O)O)C(=O)NCCOCCOCC(=O)NCCOCCOCC(=O)N[C@@H](CCCCNC(=O)CCCC[C@@H]1SC[C@@H]2NC(=O)N[C@@H]21)C(N)=O [L10-2] (H-[dH]Y(Me)R[hCit][Nva]R[Phe(3,5-F2)]F[Aad][AEEA][AEEA]K(Biotin)-NH2) | bind reasonably well | 25 | 8 | ~3
CCC[C@H](NC(=O)[C@H](CCC(N)=O)NC(=O)[C@@H](N)Cc1cc(F)cc(F)c1)C(=O)N[C@@H](CCCNC(=N)N)C(=O)N[C@H](CC(N)=O)C(=O)N[C@@H](CCC)C(=O)N[C@H](CC(N)=O)C(=O)NC1(C(=O)NCCOCCOCC(=O)NCCOCCOCC(=O)N[C@@H](CCCCNC(=O)CCCC[C@@H]2SC[C@@H]3NC(=O)N[C@@H]32)C(N)=O)CC1 [L10-3] (H-[Phe(3,5-F2)]Q[Nva]R[dN][Nva][dN][Ac3c][AEEA][AEEA]K(Biotin)-NH2) | bind reasonably well |  |  | 
CCC[C@H](NC(=O)[C@H](CCCCNC(N)=O)NC(=O)[C@H](Cc1ccc(OC)cc1)NC(=O)[C@H](N)Cc1c[nH]cn1)C(=O)N[C@@H](CCCNC(=N)N)C(=O)N[C@@H](Cc1cc(F)cc(F)c1)C(=O)N[C@@H](Cc1ccccc1)C(=O)N[C@@H](CCCC(=O)O)C(=O)NCCOCCOCC(=O)NCCOCCOCC(=O)N[C@@H](CCCCNC(=O)CCCC[C@@H]1SC[C@@H]2NC(=O)N[C@@H]21)C(N)=O [L10-4] (H-[dH]Y(Me)[hCit][Nva]R[Phe(3,5-F2)]F[Aad][AEEA][AEEA]K(Biotin)-NH2) | bind reasonably well |  |  | 
CC(C)C[C@H](NC(=O)CNC(=O)[C@H](Cc1ccccc1)NC(=O)[C@@H](NC(=O)[C@@H](N)[C@@H](C)O)C(C)C)C(=O)N[C@@H](CC(N)=O)C(=O)N[C@H](C(=O)N[C@@H](Cc1c[nH]c2ccccc12)C(=O)N[C@@H](CCCCN)C(=O)N[C@@H](CCCNC(=N)N)C(=O)N[C@@H](Cc1ccc(O)cc1)C(=O)N[C@@H](CO)C(=O)N[C@@H](CCCCN)C(=O)NCCOCCOCC(=O)NCCOCCOCC(=O)N[C@@H](CCCCNC(=O)CCCC[C@@H]1SC[C@@H]2NC(=O)N[C@@H]21)C(N)=O)C(C)C [Reference Peptide, reference compound] (H-TVFGLNVWKRYSK[AEEA][AEEA]K(Biotin)-NH2) |  | 79 |  | 
